Data reported in patent US9889144B2, “Abiraterone acetate formulation and methods of use” (iCeutica Inc., priority 2013, dated 2018).

Legend:
[1] = Abiraterone acetate stability with and without milling, total impurities by HPLC; format: physicochemical; details: 80° C., 4 hrs
Source text: The impurity growth in the DPI and tablets containing fine particle abiraterone acetate is due to oxidative degradation of abiraterone acetate. […] The faster degradation in tablets containing fine particle abiraterone acetate could arise from a number of sources, including, but not limited to: greater surface area of the API, higher proportion of excipient relative to the API, and differences in excipients.

[2] = cited from earlier work

Total impurities by HPLC ([1]; Milling none): 0.23 % AUC
Total impurities by HPLC ([1]; SPEX shaker mill): 0.17 % AUC
SMILES: CC(=O)O[C@H]1CC[C@@]2(C)C(=CC[C@@H]3[C@@H]2CC[C@]2(C)C(c4cccnc4)=CC[C@@H]32)C1 [Abiraterone Acetate (API), 17-(3-Pyridyl) androsta-5, acetate]
water solubility [2]: poorly water soluble
